In patent US11498920B2, “4-(1H-imidazol-5-yl)-1H-pyrrolo[2, 3-b] pyridines for use in the treatment of leukaemias, lymphomas and solid tumors” (MASARYKOVA UNIVERZITA, priority 2018, dated 2022):

Assays:
primary CLL cells = test: Cytotoxicity, TMRE flow cytometry viability, primary CLL cells (Example II.1); assay type: cell-based; conditions: Homo sapiens, CLL cell, 6 hours, TMRE positive cells normalized to control, ratio to PF670462, <1 = higher cytotoxicity than PF670462, read-out: Viability of cells, Compound of formula I (100 μM), relative to PF670462 (100 μM), CLL primary cells
Experimental: (§1) The leukemia and lymphoma-derived cell lines [MEC-1 cell line (derived from chronic lymphocytic leukemia—CLL), Nalm-16 (acute lymphocytic leukemia—ALL), K562 (chronic myeloid leukemia—CML), HL-60 (acute myeloid leukemia—AML), Maver-1 and Mino (mantle cell lymphoma—MCL), BL-41 (Burkitt lymphoma—BL), WSU-NHL (follicular lymphoma—FL), SUDHL (diffuse large B-cell lymphoma—DLBCL)], primary CLL cells and nonmalignant control primary cells were cultured in suspension in flasks under the following conditions: RPMI 1640 medium (Hyclone) supplemented with 10% fetal bovine serum (FBS, Gibco) and 1% penicillin/streptomycin (Life Technologies), 37° C., 5% CO2 and 95% relative humidity, with optimal culture cell density 5×10^6 cells/mL in case of primary cells and 0.5-1×10^6 cells/mL in case of cell lines. The adherent cell lines [A375 (derived from malignant melanoma), MDA-MB-231 and MCF-7 (breast cancer), MIA-PA-CA and PANC1 (pancreatic cancer), PC3 (prostate cancer), OVCAR4 (ovarian cancer) and HEPG2 (hepatocellular carcinoma)] were cultured on plates under the same conditions using RPMI1640 or DMEM medium (Gibco) according to instructions provided by the distributor (DSMZ/ATCC).
(§2) Cytotoxicity of compounds of formula I was tested in two models representative for leukemia (primary CLL cells) and lymphoma (Maver-1 cells). The primary CLL cells and Maver-1 cells (MCL-derived) were incubated with inhibitors at 100 μM concentration or corresponding amount of solvent (DMSO, Sigma Aldrich) as 0.1×10^6 cells/200 μl per well in a 96-well plate. Experiments were performed in technical duplicates. Viability of cells was assessed after 6 hours in case of primary CLL cells and after 24 hours in case of Maver-1 cells.
(§3) Apoptosis-induced reduction of mitochondrial potential is detected as lower TMRE fluorescence. […] Relative values are presented, showing ratio to the effect of PF670462 (as the closest prior art). Relative value <1 indicates a higher cytotoxicity than PF670462.

[1] = system: Maver-1 cells (mantle cell lymphoma); test: Cytotoxicity, TMRE flow cytometry viability, Maver-1 cells (Example II.1); assay type: cell-based; conditions: Homo sapiens, Maver1, 24 hours, TMRE positive cells normalized to control, ratio to PF670462, <1 = higher cytotoxicity than PF670462, read-out: Viability of cells, Compound of formula I (100 μM), relative to PF670462 (100 μM), Maver-1 cells (mantle cell lymphoma)
Experimental: as §1, §2, §3

SMILES | viability at 100 µM (primary CLL cells) [%] | viability at 100 µM [1] [%]
Fc1cccc(-c2ncn(C3CCCCC3)c2-c2ccnc3[nH]ccc23)c1 [Preparative Example 1, 4-(1-cyclohexyl-4-(3-fluorophenyl)-1H-imidazol-5-yl)-1H-pyrrolo[2,3-b]pyridine] | 18 | 6
Fc1ccccc1-c1ncn(C2CCCCC2)c1-c1ccnc2[nH]ccc12 [Preparative Example 2, 4-(1-cyclohexyl-4-(2-fluorophenyl)-1H-imidazol-5-yl)-1H-pyrrolo[2,3-b]pyridine] | 37 | 32
Fc1ccc(-c2ncn(C3CCCCC3)c2-c2ccnc3[nH]ccc23)c(F)c1 [Preparative Example 4, 4-(1-cyclohexyl-4-(2,4-difluorophenyl)-1H-imidazol-5-yl)-1H-pyrrolo[2,3-b]pyridine] | 21 | 21
Clc1cccc(-c2ncn(C3CCCCC3)c2-c2ccnc3[nH]ccc23)c1 [Preparative Example 5, 4-(4-(3-chlorophenyl)-1-cyclohexyl-1H-imidazol-5-yl)-1H-pyrrolo[2,3-b]pyridine] | 24 | 54
Brc1cccc(-c2ncn(C3CCCCC3)c2-c2ccnc3[nH]ccc23)c1 [Preparative Example 6, 4-(4-(3-bromophenyl)-1-cyclohexyl-1H-imidazol-5-yl)-1H-pyrrolo[2,3-b]pyridine] | 37 | 42
Clc1ccc(-c2ncn(C3CCCCC3)c2-c2ccnc3[nH]ccc23)c(Cl)c1 [Preparative Example 7] | 34 | 84
c1ccc(-c2ncn(C3CCCCC3)c2-c2ccnc3[nH]ccc23)cc1 [Preparative Example 8] | 32 | 4
Clc1ccc(-c2ncn(C3CCCCC3)c2-c2ccnc3[nH]ccc23)cc1 [Preparative Example 9, 4-(4-(4-chlorophenyl)-1-cyclohexyl-1H-imidazol-5-yl)-1H-pyrrolo[2,3-b]pyridine] | 50 | 30
Brc1ccc(-c2ncn(C3CCCCC3)c2-c2ccnc3[nH]ccc23)cc1 [Preparative Example 10, 4-(4-(4-bromophenyl)-1-cyclohexyl-1H-imidazol-5-yl)-1H-pyrrolo[2,3-b]pyridine] | 61 | 46
CC(C)(C)OC(=O)N1CCC(n2cnc(-c3ccc(F)cc3)c2-c2ccnc3[nH]ccc23)CC1 [Preparative Example 11, tert-butyl-4-(4-(4-fluorophenyl)-5-(1H-pyrrolo[2,3-b]pyridin-4-yl)-1H-imidazol-1-yl)piperidine-1-carboxylate] | 30 | 6
CN1CCC(n2cnc(-c3ccc(F)cc3)c2-c2ccnc3[nH]ccc23)CC1 [Preparative Example 14, 4-(4-(4-fluorophenyl)-1-(1-methylpiperidin-4-yl)-1H-imidazol-5-yl)-1H-pyrrolo[2,3-b]pyridine] | 77 | 70
Fc1ccc(-c2ncn(C3CCCCCC3)c2-c2ccnc3[nH]ccc23)cc1 [Preparative Example 19, 4-(1-cycloheptyl-4-(4-fluorophenyl)-1H-imidazol-5-yl)-1H-pyrrolo[2,3-b]pyridine] | 22 | 33
Fc1ccc(-c2ncn(Cc3ccccc3)c2-c2ccnc3[nH]ccc23)cc1 [Preparative Example 22, 4-(1-benzyl-4-(4-fluorophenyl)-1H-imidazol-5-yl)-1H-pyrrolo[2,3-b]pyridine] | 17 | 27
CC1(C)CC(Cn2cnc(-c3ccc(F)cc3)c2-c2ccnc3[nH]ccc23)C1 [Preparative Example 29, 4-(1-((3,3-dimethylcyclobutyl)methyl)-4-(4-fluorophenyl)-1H-imidazol-5-yl)-1H-pyrrolo[2,3-b]pyridine] | 21 | 3
COC(=O)[C@H]1CC[C@@H](n2cnc(-c3ccc(F)cc3)c2-c2ccnc3[nH]ccc23)CC1 [Preparative Example 33, Methyl cis-4-(4-(4-fluorophenyl)-5-(1H-pyrrolo[2,3-b]pyridin-4-yl)-1H-imidazol-1-yl)cyclohexane-1-carboxylate] | 63 | 12
COC(=O)[C@H]1CC[C@H](n2cnc(-c3ccc(F)cc3)c2-c2ccnc3[nH]ccc23)CC1 [Preparative Example 34, Methyl trans-4-(4-(4-fluorophenyl)-5-(1H-pyrrolo[2,3-b]pyridin-4-yl)-1H-imidazol-1-yl)cyclohexane-1-carboxylate] | 55 | 89
CS(=O)(=O)N[C@H]1CC[C@H](n2cnc(-c3ccc(F)cc3)c2-c2ccnc3[nH]ccc23)CC1 [Preparative Example 79, N-(trans-4-(4-(4-fluorophenyl)-5-(1H-pyrrolo[2,3-b]pyridin-4-yl)-1H-imidazol-1-yl)cyclohexyl)methanesulfonamide] | 86 | –
Fc1ccc(-c2ncn(Cc3ccncc3)c2-c2ccnc3[nH]ccc23)cc1 [Preparative Example 83, 4-(4-(4-fluorophenyl)-1-(pyridin-4-ylmethyl)-1H-imidazol-5-yl)-1H-pyrrolo[2,3-b]pyridine] | 78 | –
Fc1ccc(-c2ncn(C34CCN(CC3)C4)c2-c2ccnc3[nH]ccc23)cc1 [Preparative Example 86, 4-(1-((1r,4r)-1-azabicyclo[2.2.1]heptan-4-yl)-4-(4-fluorophenyl)-1H-imidazol-5-yl)-1H-pyrrolo[2,3-b]pyridine] | 76 | –
OC1(Cn2cnc(-c3ccc(F)cc3)c2-c2ccnc3[nH]ccc23)CCC1 [Preparative Example 91, 1-((4-(4-fluorophenyl)-5-(1H-pyrrolo[2,3-b]pyridin-4-yl)-1H-imidazol-1-yl)methyl)cyclobutan-1-ol] | – | 69
Cn1cc(Cn2cnc(-c3ccc(F)cc3)c2-c2ccnc3[nH]ccc23)cn1 [Preparative Example 93] | – | 75
CN1CCC(O)(Cn2cnc(-c3ccc(F)cc3)c2-c2ccnc3[nH]ccc23)CC1 [Preparative Example 119, 4-((4-(4-fluorophenyl)-5-(1H-pyrrolo[2,3-b]pyridin-4-yl)-1H-imidazol-1-yl)methyl)-1-methylpiperidin-4-ol] | 87 | –
Fc1ccc(-c2ncn(Cc3cscn3)c2-c2ccnc3[nH]ccc23)cc1 [Preparative Example 127, 4-((4-(4-fluorophenyl)-5-(1H-pyrrolo[2,3-b]pyridin-4-yl)-1H-imidazol-1-yl)methyl)thiazole] | – | 72
Fc1ccc(-c2ncn(Cc3cnsc3)c2-c2ccnc3[nH]ccc23)cc1 [Preparative Example 130, 4-((4-(4-fluorophenyl)-5-(1H-pyrrolo[2,3-b]pyridin-4-yl)-1H-imidazol-1-yl)methyl)isothiazole] | 89 | –
Cn1ccc(Cn2cnc(-c3ccc(F)c(Cl)c3)c2-c2ccnc3[nH]ccc23)n1 [Preparative Example 143, 4-(4-(3-chloro-4-fluorophenyl)-1-((1-methyl-1H-pyrazol-3-yl)methyl)-1H-imidazol-5-yl)-1H-pyrrolo[2,3-b]pyridine] | 66 | –
CC(c1cnn(C)c1)n1cnc(-c2ccc(F)cc2)c1-c1ccnc2[nH]ccc12 (stereo not drawn) [Preparative Example 145] | – | 42
Cc1ncc(Cn2cnc(-c3ccc(F)cc3)c2-c2ccnc3[nH]ccc23)s1 [Preparative Example 152, 5-((4-(4-fluorophenyl)-5-(1H-pyrrolo[2,3-b]pyridin-4-yl)-1H-imidazol-1-yl)methyl)-2-methylthiazole] | – | 62
O[C@H]1CCC[C@H](n2cnc(-c3ccc(F)cc3)c2-c2ccnc3[nH]ccc23)C1 [Preparative Example 158, (1S,3S)-3-(4-(4-fluorophenyl)-5-(1H-pyrrolo[2,3-b]pyridin-4-yl)-1H-imidazol-1-yl)cyclohexan-1-ol] | 76 | –
Fc1ccc(-c2ncn(Cc3ccccc3)c2-c2ccnc3[nH]ccc23)nc1 [Preparative Example 184, 4-(1-benzyl-4-(5-fluoropyridin-2-yl)-1H-imidazol-5-yl)-1H-pyrrolo[2,3-b]pyridine] | – | 57
